The values that follow come from patent US20050256132A1, “Use of ER selective NF-kB inhibitors for the treatment of sepsis” (priority 2003, published 2005).

Where two headings read alike, the source gives them in different places.

One data set concerns CK. The data set can be described thus: Creatine kinase assay in ERα infected HAECT-1 cells (Table 2). The class given is cell-based, human. The conditions noted are these: for EC50 / Emax: Homo sapiens; for EC50: HAECT1; for Emax: HAECT1, read-out: CK % Efficacy. On the procedure: (§1) T-175 flasks of 100% confluent HAECT-1 cells (immortalized human aortic endothelial cells) were washed with 8 ml of HBSS (HEPES buffered saline solution) and infected for fours hours with 6 ml of a 1:10 dilution of Ad5-wt-hERα virus (an adenovirus transfection vector that mediates CMV promoter driven expression of human ERα) in phenol red free Endothelial Cell Basal medium (Clonetics, San Diego, Calif., Catalog # CC-3129) containing 0.25% bovine serum albumin (EDM-BSA). After four hours, cells were washed with EDM-BSA and incubated overnight in the same medium. Following overnight incubation, cells were washed with EDM-BSA and infected for 2 hours with 6 ml of a 1:10 dilution of Ad5-3x(NFκB).Luc virus (Adenovirus luciferase expression vector driven by three repeats of the MHC NFκb sites 5′ to the thymidine kinase promoter) in EDM-BSA. After two hours, cells were washed and incubated at 34° C. for one hour. Cells were then washed, trypsinized, counted, and resuspended in 95% FBS/5% dimethylsulfoxide at a concentration of […], frozen as 1 or 5 ml aliquots in cryo-vials and stored at −150° C. Control (no ER infection) cells were processed as above without Ad5-wt-hERα virus infection.
(§2) ERα infected HAECT-1 cells or control cells were thawed, diluted 42× in warm EBM-BSA, plated into 96-well plates at 0.1 ml/well and incubated for 4 hours at 34° C. Test compounds were added to the cells at 2× stocks in EBM-BSA containing 2 ng/ml IL-1β Ad6-IL-6(1250 bp).Luc virus and plates were returned to the incubator (34° C.). After […], cells were lysed with 50 μl of Promega Cell Culture Lysis reagenet for about 5 minutes at room temperature on a shaker. After lysing, 15 μl of lysate is transferred to luminometer plates for luciferase determination. Luciferase activity is evaluated using a Perkin Elmer Victor2 1420 multilabel counter. Creatine kinase was determined from the rate of increase in A340 following addition of 100 μl of CK assay reagent (Sigma catalog no. 47-10) to the remainder of the cell lysate.
(§3) For IC50 and EC50 calculations, mean IL-6, luciferase or CK values versus log10 of the compound concentration were fitted to a four parameter logistic equation. The IC50/EC50 value, ‘Hill slope,’ upper and lower limits of the curve were iteratively estimated.

Another data set relates to ER/IL-6. Nature of the data set: Endothelial Cell ER/IL-6 Assay, IL-6 promoter luciferase (Table 2). The class given is cell-based, human. To be noted: for Emax: read-out: IL6 luc % Efficacy. As to the method: as §1, §2, §3
Where [1] appears, read: Homo sapiens, HAECT1, ERα infected HAECT-1 cells, IL-1β.
Setting [2] is: Homo sapiens, HAECT1, ERα infected HAECT-1 cells, IL-1β, read-out: IL6 luc IC50.
Setting [3] is: ERα infected HAECT-1 cells, IL-1β.
The mark [4] stands for this setting: ERα infected HAECT-1 cells, IL-1β, read-out: IL6 luc IC50.

One may read the EC50 as the concentration that produces a half-maximal response. Lower therefore signals higher potency in that assay. As a reminder, the IC50 is the concentration that inhibits the measured activity by half. Turning to `COCCOC[C@](C#N)(C(=O)OC)[C@H](c1ccccc1OC)c1cccc2ccccc12` (relative stereo) [Example 144, Methyl (2S*,3S*)-2-cyano-2-[(2-methoxyethoxy)methyl]-3-(2-methoxyphenyl)-3-(1-naphthyl)propanoate], in the data set on CK, the concentration giving a half-maximal response (EC50) stood at 19 nM. Further, the Emax with ER/IL-6 (setting [1]) was found to be 103%. The 50% inhibitory concentration (IC50) with ER/IL-6 (setting [2]) came out at 7 nM.

`COC[C@](C#N)(C(=O)OC)[C@H](c1cnc2ccccc2c1)c1ccccc1OC` (relative stereo) [Example 165, Methyl (2S*,3R*)-2-cyano-2-(methoxymethyl)-3-(2-methoxyphenyl)-3-quinolin-3-ylpropanoate]: the Emax in the data set on CK is -22%; in the data set with ER/IL-6 (setting [1]) it was 21%.

For `COCCOC[C@](C#N)(C(=O)OC)[C@H](c1ccccc1OC)c1cccc2ccccc12` [Example 158, Methyl (2S,3S)-2-cyano-2-[(2-methoxyethoxy)methyl]-3-(2-methoxyphenyl)-3-(1-naphthyl)propanoate], in the data set on CK, the EC50 was 55 nM and the Emax stood at 23%. Further, the Emax in the data set on ER/IL-6 (setting [1]) came to 121%. In the data set on ER/IL-6 (setting [2]), the IC50 was 4.5 nM.

On to `COCC(C#N)(C(=O)OC)C(c1ccccc1OC)c1ccnc2ccccc12` (stereo not drawn) [Example 162, Methyl (RR,SS)-2-cyano-2-(methoxymethyl)-3-(2-methoxyphenyl)-3-quinolin-4-ylpropanoate], for which the “CK % Efficacy” value in the data set with CK is −4%. In the data set on ER/IL-6 (setting [3]), the “IL6 luc % Efficacy” value came out at 126%. Moreover, the 50% inhibitory concentration (IC50) with ER/IL-6 (setting [4]) turned out to be 546 nM.

Turning to `COC(=O)[C@@](C)(C#N)[C@H](c1cnc2ccccc2c1)c1ccccc1OC` [Example 163, Methyl (SS,RR)-2-cyano-3-(2-methoxyphenyl)-2-methyl-3-(quinolin-3-yl)propanoate], the “CK % Efficacy” value in the data set with CK is −12%. In the data set on ER/IL-6 (setting [3]), the “IL6 luc % Efficacy” value is −32%. Also, the IC50 with ER/IL-6 (setting [4]) worked out at 2.95 nM.

`COCCOCC(C#N)(C(=O)N1CCN(c2ncccn2)CC1)C(c1ccccc1OC)c1cccc2ccccc12` (stereo not drawn) [Example 167, (RR,SS)-2-[(2-Methoxyethoxy)methyl]-3-(2-methoxyphenyl)-3-(1-naphthyl)-2-[(4-pyrimidin-2-ylpiperazin-1-yl)carbonyl]propanenitrile]: in the data set with CK, the “CK % Efficacy” value is given as −16%. Further, in the data set on ER/IL-6 (setting [3]), the “IL6 luc % Efficacy” value amounted to 72%. In addition, the 50% inhibitory concentration (IC50) with ER/IL-6 (setting [4]) is 1230 nM.

As to `COCCOC[C@@](C#N)(C(=O)NC(C)(C)C)[C@@H](c1ccccc1OC)c1cccc2ccccc12` [Example 169, (RR,SS)-N-(tert-Butyl)-2-cyano-2-[(2-methoxyethoxy)methyl]-3-(2-methoxyphenyl)-3-(1-naphthyl)propanamide], in the data set with CK, the “CK % Efficacy” value is −8%. Moreover, the “IL6 luc % Efficacy” value in the data set on ER/IL-6 (setting [3]) amounted to 97%. The IC50 in the data set on ER/IL-6 (setting [4]) was 331 nM.

Consider `COCCOCC(C#N)(C(=O)N1CC=C(c2c[nH]c3ccccc23)CC1)C(c1ccccc1OC)c1cccc2ccccc12` (stereo not drawn) [Example 172, (RR,SS)-3-[4-(1H-indol-3-yl)-3,6-dihydropyridin-1(2H)-yl]-2-[(2-methoxyethoxy)methyl]-2-[(S*)-(2-methoxyphenyl)(1-naphthyl)methyl]-3-oxopropanenitrile], for which, in the data set on CK, the “CK % Efficacy” value was −13%. In addition, in the data set with ER/IL-6 (setting [3]), the “IL6 luc % Efficacy” value is 149%. In the data set with ER/IL-6 (setting [4]), the IC50 was 114 nM.

A word on the melting point: it is the temperature, or range, at which the solid turns liquid. `COc1ccccc1[C@H](c1cccc2ccccc12)[C@@](C)(C#N)C(=O)N1CCc2c([nH]c3ccccc23)C1` [Example 190, (2S,3S)-3-(2-methoxyphenyl)-2-methyl-3-(1-naphthyl)-2-(1,3,4,9-tetrahydro-2H-beta-carbolin-2-ylcarbonyl)propanenitrile] had a melting point of 212 to 213 °C. Further, the IC50 in the data set with ER/IL-6 (setting [2]) is 113 nM.

The compound `COc1ccccc1[C@H](c1cccc2ccccc12)[C@@](C)(C#N)C(=O)N1CCC(=O)CC1` [Example 191, (2S,3S)-3-(2-methoxyphenyl)-2-methyl-3-(1-naphthyl)-2-[(4-oxopiperidin-1-yl)carbonyl]propanenitrile] gave a melting point of 209 to 210 °C. In addition, the half-maximal inhibitory concentration (IC50) with ER/IL-6 (Homo sapiens, HAECT1, read-out: IL6 luc IC50) turned out to be 586 nM.

Turning to `CCC(=O)C1(c2ccccc2)CCN(C(=O)[C@](C)(C#N)[C@H](c2ccccc2OC)c2cccc3ccccc23)CC1` [Example 194, (2S,3S)-3-(2-methoxyphenyl)-2-methyl-3-(1-naphthyl)-2-[(4-phenyl-4-propionylpiperidin-1-yl)carbonyl]propanenitrile], the melting point was 126 to 128 °C. For the same compound, the Emax in the data set with ER/IL-6 (setting [1]) is 150%. The IC50 in the data set with ER/IL-6 (setting [2]) amounted to 132 nM.

`COc1ccccc1[C@H](c1cccc2ccccc12)[C@@](C)(C#N)C(=O)N1CCC(C(C)=O)(c2ccccc2)CC1` [Example 195, (2S)-3-(4-acetyl-4-phenylpiperidin-1-yl)-2-[(S)-(2-methoxyphenyl)(1-naphthyl)methyl]-2-methyl-3-oxopropanenitrile]: the melting point is 134 to 135 °C. The Emax with ER/IL-6 (setting [1]) was 74%. Further, the half-maximal inhibitory concentration (IC50) with ER/IL-6 (setting [2]) stood at 710 nM.

Compound `COc1ccccc1[C@H](c1cccc2ccccc12)[C@@](C)(C#N)C(=O)N1CCN(C2CCCCC2)CC1` [Example 196, (2S)-3-(4-cyclohexylpiperazin-1-yl)-2-[(s)-(2-methoxyphenyl)(1-naphthyl)methyl]-2-methyl-3-oxopropanenitrile] had a melting point of 137 to 138 °C. The Emax in the data set with ER/IL-6 (setting [1]) worked out at 142%. For the same compound, the concentration for half-maximal inhibition (IC50) in the data set with ER/IL-6 (setting [2]) was 70 nM.

As for `COCCN1CCN(C(=O)[C@](C)(C#N)[C@H](c2ccccc2OC)c2cccc3ccccc23)CC1` [Example 197, (2S)-3-[4-(2-methoxyethyl)piperazin-1-yl]-2-[(S)-(2-methoxyphenyl)(1-naphthyl)methyl]-2-methyl-3-oxopropanenitrile], the melting point turned out to be 144 °C. The Emax with ER/IL-6 (setting [1]) came out at 46%. Besides, in the data set with ER/IL-6 (setting [2]), the half-maximal inhibitory concentration (IC50) was found to be 39 nM.

`COc1ccccc1[C@H](c1cccc2ccccc12)[C@@](C)(C#N)C(=O)N1CCN(CC(=O)N2CCCC2)CC1` [Example 201, (2S,3S)-3-(2-methoxyphenyl)-2-methyl-3-(1-naphthyl)-2-{[4-(2-oxo-2-pyrrolidin-1-ylethyl)piperazin-1-yl]carbonyl}propanenitrile]: the melting point turned out to be 203 °C. Moreover, in the data set with ER/IL-6 (setting [1]), the Emax was 45%. In addition, in the data set with ER/IL-6 (setting [2]), the 50% inhibitory concentration (IC50) came out at 1090 nM.

`COc1ccccc1[C@H](c1cccc2ccccc12)[C@@](C)(C#N)C(=O)N1CCN(CCCN(C)C)CC1` [Example 202, (2S)-3-{4-[3-(dimethylamino)propyl]piperazin-1-yl}-2-[(S)-(2-methoxyphenyl)(1-naphthyl)methyl]-2-methyl-3-oxopropanenitrile]: the melting point was in the range of 78 to 80 °C. Further, in the data set on ER/IL-6 (setting [1]), the Emax amounted to 43%.

For the compound `COCCN1CCN(C(=O)C(C#N)(COC)C(c2ccccc2OC)c2cccc3ccccc23)CC1` (stereo not drawn) [Example 206, 3-[4-(2-methoxyethyl)piperazin-1-yl]-2-(methoxymethyl)-2-[(2-methoxyphenyl)(1-naphthyl)methyl]-3-oxopropanenitrile], the melting point fell in the range of 156 to 158 °C. For the same compound, the Emax in the data set on ER/IL-6 (setting [1]) stood at 83%. Moreover, the IC50 with ER/IL-6 (setting [2]) is 345 nM.

As to `COc1ccccc1C(c1cccc2ccccc12)C(C#N)(COCc1ccccc1)C(=O)N1CCN(CCN2CCOCC2)CC1` (stereo not drawn) [Example 208, 2-[(benzyloxy)methyl]-3-(2-methoxyphenyl)-2-{[4-(2-morpholin-4-ylethyl)piperazin-1-yl]carbonyl}-3-(1-naphthyl)propanenitrile], the melting point came out at 162 °C. Further, in the data set with ER/IL-6 (setting [1]), the Emax turned out to be 50%. Moreover, the concentration for half-maximal inhibition (IC50) in the data set with ER/IL-6 (setting [2]) came to 13 nM.

For `COC[C@](C#N)(C(=O)N1CCN(c2ncccn2)CC1)[C@H](c1ccccc1OC)c1cccc2ccccc12` [Example 210, (2S,3S)-2-(methoxymethyl)-3-(2-methoxyphenyl)-3-(1-naphthyl)-2-[(4-pyrimidin-2-ylpiperazin-1-yl)carbonyl]propanenitrile], the melting point was found to be 140 °C. Also, in the data set on ER/IL-6 (setting [1]), the Emax was determined as 132%. Also, the IC50 in the data set on ER/IL-6 (setting [2]) came out at 16 nM.

Consider `COC[C@@](C#N)(C(=O)N1CCN(c2ncccn2)CC1)[C@@H](c1ccccc1OC)c1cccc2ccccc12` [Example 211, (2R,3R)-2-(methoxymethyl)-3-(2-methoxyphenyl)-3-(1-naphthyl)-2-[(4-pyrimidin-2-ylpiperazin-1-yl)carbonyl]propanenitrile], for which the melting point is 136 to 137 °C. In the data set with ER/IL-6 (setting [1]), the Emax was determined as 78%. Further, the half-inhibitory concentration (IC50) in the data set on ER/IL-6 (setting [2]) came out at 268 nM.
